According to patent publication US12018059B2, “Human amylin analog polypeptides and methods of use” (Intarcia Therapeutics, Inc., priority 2018, dated 2024):
Positions of bridges follow the written chain, without caps; N, C: chain ends. Non-standard residues stand in square brackets, D forms with d. Residues, ends and D or L forms follow the SMILES beside them.

experiment: Pharmacokinetics, 3-hour intravenous infusion of linear (non-acylated) polypeptides; set-up: species or system Sprague-Dawley rats; conditions: rat, in vivo, 0.1 mg/kg; linear polypeptides; 3-hour intravenous infusion, 0.100 mg/kg, male Sprague-Dawley rats; read-out: CL
Experimental: Peptides were dissolved in sterile saline and administered as a 3-hour intravenous infusion to non-fasted male Sprague-Dawley rats (n=3 per group) via femoral vein cannula at a final dose of 0.100 mg/kg. […] Blood samples (approximately 250 μL) were collected for pharmacokinetic analysis via a jugular vein cannula at 0.25, 0.5, 1, 2, 3, 3.17, 3.33, 3.5, 4, 4.5, 5, and 6 hr post-start of infusion (long method) or at 1, 1.5, 2, 2.5, and 3 hr post-start of infusion (steady-state screening method). All samples were collected into microtainer tubes containing K2EDTA as anticoagulant and 25 μL of a protease inhibitor cocktail. Plasma was prepared by centrifugation and stored at −80° C. until analysis. The results of this analysis are shown in Table 9 and few exemplars in FIGS. 3a-3b.
A 60 μL aliquot of each plasma sample was placed into to a 96-well plate. To each well was added 6 μL of 0.5% Tween-20. Plates were then vortexed mixed for 10 minutes at 1200 rpm before 180 μL of 0.1% TFA in 2:1 ethanol:acetonitrile containing an appropriate internal standard was added to each well. Plates were vortex mixed for 5 min at 1300 rpm, and then centrifuged for 10 min at 2844×g. Supernatants (180 μL) were placed into a clean 96-well plate and evaporated under a nitrogen stream at 45° C. Residues were reconstituted in 80 μL of 20% acetonitrile (aq) containing 0.1% formic acid.
A […] aliquot of each plasma sample was diluted with […] of 10 mM ammonium acetate (pH 6.8) containing an appropriate internal standard and loaded onto an Oasis WCX microElution plate (Waters Corporation, Milford, MA) that had been pre-conditioned with […] of methanol and […] of deionized water. Samples were washed with […] of 5% ammonium hydroxide (aq) followed by […] of 20% acetonitrile in water. The analyte was eluted with […] of 5% formic acid in 75:25 acetonitrile:water. The eluent was dried under a nitrogen stream. Residues were reconstituted in 80 μL of 20% acetonitrile (aq) containing 0.1% formic acid.
All calibration standards were prepared in control rat plasma containing K2EDTA and protease inhibitor cocktail.
Samples and standards were analyzed by TurbolonSpray™ UPLC-MS/MS using a system consisting of a CTC HTS PAL auto-injector (Leap, Carrboro, NC), an Agilent Infinity 1290 system with column oven (Palo Alto, CA), a Valco switching valve (Houston, TX), and either an AB Sciex API 5600 TripleTOF™ or Sciex API 4000QTrap mass spectrometer (Framingham, MA). Samples were injected onto a 2.1×50 mm reverse phase C18 analytical column, typically a Waters CORTECS UPLC C18+, 1.6 μm (Waters Corporation, Milford, MA) or similar. […] Initial conditions consisted of 90% A and 10% B. The organic component was increased to 95% B over a period of 3-4 minutes, depending on the peptide. Typical flow rates were 600 μL/min. The column temperature was held constant at 40 or 50° C. Peptides were quantified by monitoring one or more product ions produced from a multiply charged parent ion.

Row | clearance | SMILES
1 | 19.5 mL/min/kg | CC[C@H](C)[C@H](NC(=O)[C@@H]1CCCN1C(=O)CNC(=O)[C@H](Cc1ccccc1)NC(=O)[C@H](CC(N)=O)NC(=O)[C@H](CC(N)=O)NC(=O)[C@H](CO)NC(=O)[C@H](CO)NC(=O)[C@H](Cc1c[nH]cn1)NC(=O)[C@@H](NC(=O)[C@H](CC(C)C)NC(=O)[C@H](CCC(=O)O)NC(=O)[C@H](CC(N)=O)NC(=O)[C@H](C)NC(=O)[C@H](CC(C)C)NC(=O)[C@H](CCCNC(=N)N)NC(=O)[C@H](CO)NC(=O)[C@@H](NC(=O)[C@H](C)NC(=O)[C@@H]1CSSC[C@H](NC(=O)[C@@H](N)CO)C(=O)N[C@@H](CC(N)=O)C(=O)N[C@@H]([C@@H](C)O)C(=O)N[C@@H](CO)C(=O)N[C@@H]([C@@H](C)O)C(=O)N1)[C@@H](C)O)C(C)C)C(=O)N[C@@H](CC(C)C)C(=O)N1CCC[C@H]1C(=O)N1CCC[C@H]1C(=O)N[C@H](C(=O)N[C@@H](CC(N)=O)C(=O)N[C@H](C(=O)NCC(=O)N[C@@H](CO)C(=O)N[C@@H](CC(N)=O)C(=O)N[C@H](C(=O)N[C@@H](Cc1ccc(O)cc1)C(N)=O)[C@@H](C)O)C(C)C)[C@@H](C)O [Compound A32] (H-SCNTSTCATSRLANELVHSSNNFGPILPPTNVGSNTY-NH2; disulfide 2-7)
2 | 17.5 mL/min/kg | CC[C@H](C)[C@H](NC(=O)[C@@H]1CCCN1C(=O)CNC(=O)[C@H](Cc1ccccc1)NC(=O)[C@H](CCC(=O)O)NC(=O)[C@H](CC(N)=O)NC(=O)[C@H](CO)NC(=O)[C@H](CO)NC(=O)[C@H](CCCNC(=N)N)NC(=O)[C@H](Cc1c[nH]cn1)NC(=O)[C@H](CC(C)C)NC(=O)[C@H](CCC(=O)O)NC(=O)[C@H](CC(N)=O)NC(=O)[C@H](C)NC(=O)[C@H](CC(C)C)NC(=O)[C@H](CCCNC(=N)N)NC(=O)[C@H](CCC(N)=O)NC(=O)[C@@H](NC(=O)[C@H](C)NC(=O)[C@@H]1CSSC[C@H](NC(=O)[C@@H](N)CO)C(=O)N[C@@H](CC(N)=O)C(=O)N[C@@H]([C@@H](C)O)C(=O)N[C@@H](CO)C(=O)N[C@@H]([C@@H](C)O)C(=O)N1)[C@@H](C)O)C(=O)N[C@@H](CC(C)C)C(=O)N1CCC[C@H]1C(=O)N1CCC[C@H]1C(=O)N[C@H](C(=O)N[C@@H](CC(N)=O)C(=O)N[C@H](C(=O)NCC(=O)N[C@@H](CO)C(=O)N[C@@H](CC(N)=O)C(=O)N[C@H](C(=O)N[C@@H](Cc1ccc(O)cc1)C(N)=O)[C@@H](C)O)C(C)C)[C@@H](C)O [Compound A41] (H-SCNTSTCATQRLANELHRSSNEFGPILPPTNVGSNTY-NH2; disulfide 2-7)
3 | 21.1 mL/min/kg | CC[C@H](C)[C@H](NC(=O)[C@@H]1CCCN1C(=O)CNC(=O)[C@H](Cc1ccccc1)NC(=O)[C@H](CC(N)=O)NC(=O)[C@H](CC(N)=O)NC(=O)[C@H](CO)NC(=O)[C@H](CO)NC(=O)[C@H](CCCNC(=N)N)NC(=O)[C@H](Cc1c[nH]cn1)NC(=O)[C@H](CC(C)C)NC(=O)[C@H](CCC(=O)O)NC(=O)[C@H](CC(N)=O)NC(=O)[C@H](C)NC(=O)[C@H](CC(C)C)NC(=O)[C@H](CCCNC(=N)N)NC(=O)[C@H](CCC(N)=O)NC(=O)[C@@H](NC(=O)[C@H](C)NC(=O)[C@@H]1CSSC[C@H](NC(=O)[C@@H](N)CO)C(=O)N[C@@H](CC(N)=O)C(=O)N[C@@H]([C@@H](C)O)C(=O)N[C@@H](CO)C(=O)N[C@@H]([C@@H](C)O)C(=O)N1)[C@@H](C)O)C(=O)N[C@@H](CC(C)C)C(=O)N1CCC[C@H]1C(=O)N1CCC[C@H]1C(=O)N[C@H](C(=O)N[C@@H](CC(N)=O)C(=O)N[C@H](C(=O)NCC(=O)N[C@@H](CO)C(=O)N[C@@H](CC(N)=O)C(=O)N[C@H](C(=O)N[C@@H](Cc1ccc(O)cc1)C(N)=O)[C@@H](C)O)C(C)C)[C@@H](C)O [Compound A45] (H-SCNTSTCATQRLANELHRSSNNFGPILPPTNVGSNTY-NH2; disulfide 2-7)

same assay, conditions: rat, in vivo, iv, 0.1 mg/kg

Row | clearance | SMILES
4 | 10.7 mL/min/kg | CC[C@H](C)[C@H](NC(=O)[C@@H]1CCCN1C(=O)CNC(=O)[C@H](Cc1ccccc1)NC(=O)[C@H](CC(N)=O)NC(=O)[C@H](CC(N)=O)NC(=O)[C@H](CO)NC(=O)[C@H](CO)NC(=O)[C@H](CCCCN)NC(=O)[C@H](Cc1c[nH]cn1)NC(=O)[C@H](CC(C)C)NC(=O)[C@H](CCC(=O)O)NC(=O)[C@H](CC(N)=O)NC(=O)[C@H](C)NC(=O)[C@H](CC(C)C)NC(=O)[C@H](CCCNC(=N)N)NC(=O)[C@H](CCC(N)=O)NC(=O)[C@@H](NC(=O)[C@H](C)NC(=O)[C@@H]1CSSC[C@H](NC(=O)[C@@H](N)CO)C(=O)N[C@@H](CC(N)=O)C(=O)N[C@@H]([C@@H](C)O)C(=O)N[C@@H](CO)C(=O)N[C@@H]([C@@H](C)O)C(=O)N1)[C@@H](C)O)C(=O)N[C@@H](CC(C)C)C(=O)N1CCC[C@H]1C(=O)N1CCC[C@H]1C(=O)N[C@H](C(=O)N[C@@H](CCCCN)C(=O)N[C@H](C(=O)NCC(=O)N[C@@H](CO)C(=O)N[C@@H](CCC(=O)O)C(=O)N[C@H](C(=O)N[C@@H](Cc1ccc(O)cc1)C(N)=O)[C@@H](C)O)C(C)C)[C@@H](C)O [Compound A57] (H-SCNTSTCATQRLANELHKSSNNFGPILPPTKVGSETY-NH2; disulfide 2-7)
5 | 15.5 mL/min/kg | CC[C@H](C)[C@H](NC(=O)[C@@H]1CCCN1C(=O)CNC(=O)[C@H](Cc1ccccc1)NC(=O)[C@H](CC(N)=O)NC(=O)[C@H](CC(N)=O)NC(=O)[C@H](CO)NC(=O)[C@H](CO)NC(=O)[C@H](CCCNC(=N)N)NC(=O)[C@H](Cc1c[nH]cn1)NC(=O)[C@H](CC(C)C)NC(=O)[C@H](CCC(=O)O)NC(=O)[C@H](CC(N)=O)NC(=O)[C@H](CO)NC(=O)[C@H](CC(C)C)NC(=O)[C@H](CCCNC(=N)N)NC(=O)[C@H](CCC(N)=O)NC(=O)[C@@H](NC(=O)[C@H](C)NC(=O)[C@@H]1CSSC[C@H](NC(=O)[C@@H](N)CO)C(=O)N[C@@H](CC(N)=O)C(=O)N[C@@H]([C@@H](C)O)C(=O)N[C@@H](CO)C(=O)N[C@@H]([C@@H](C)O)C(=O)N1)[C@@H](C)O)C(=O)N[C@@H](CC(C)C)C(=O)N1CCC[C@H]1C(=O)N1CCC[C@H]1C(=O)N[C@H](C(=O)N[C@@H](CCCCN)C(=O)N[C@H](C(=O)NCC(=O)N[C@@H](CO)C(=O)N[C@@H](CCC(=O)O)C(=O)N[C@H](C(=O)N[C@@H](Cc1ccc(O)cc1)C(N)=O)[C@@H](C)O)C(C)C)[C@@H](C)O [Compound A34] (H-SCNTSTCATQRLSNELHRSSNNFGPILPPTKVGSETY-NH2; disulfide 2-7)
6 | 26.4 mL/min/kg | CC[C@H](C)[C@H](NC(=O)[C@@H]1CCCN1C(=O)CNC(=O)[C@H](Cc1ccccc1)NC(=O)[C@H](CCC(=O)O)NC(=O)[C@H](CC(N)=O)NC(=O)[C@H](CO)NC(=O)[C@H](CO)NC(=O)[C@H](CCCCN)NC(=O)[C@@H](NC(=O)[C@@H](CC(C)C)NC(=O)[C@H](Cc1ccccc1)NC(=O)[C@H](CC(N)=O)NC(=O)[C@H](C)NC(=O)[C@H](CC(C)C)NC(=O)[C@H](CCCNC(=N)N)NC(=O)[C@H](CCC(N)=O)NC(=O)[C@@H](NC(=O)[C@H](C)NC(=O)[C@@H]1CSSC[C@H](NC(=O)[C@@H](N)CO)C(=O)N[C@@H](CC(N)=O)C(=O)N[C@@H]([C@@H](C)O)C(=O)N[C@@H](CO)C(=O)N[C@@H]([C@@H](C)O)C(=O)N1)[C@@H](C)O)C(C)C)C(=O)N[C@@H](CC(C)C)C(=O)N1CCC[C@H]1C(=O)N1CCC[C@H]1C(=O)N[C@H](C(=O)N[C@@H](CCCCN)C(=O)N[C@H](C(=O)NCC(=O)N[C@@H](CO)C(=O)N[C@@H](CCC(=O)O)C(=O)N[C@H](C(=O)N[C@@H](Cc1ccc(O)cc1)C(N)=O)[C@@H](C)O)C(C)C)[C@@H](C)O [Compound A6] (H-SCNTSTCATQRLANF[dL]VKSSNEFGPILPPTKVGSETY-NH2; disulfide 2-7; N-terminus assumed)
